# Measurements taken from PMC9476189 (ACS Omega, 2022).
# Columns and labels:
# AChE = AChE (Homo sapiens, UniProt P22303); settings: for AChE inhibition, inhibition (%) at 0.5 mM / IC50: mean ± SEM, triplicate; for IC50: read-out: AChE inhibition, IC50
# α-glucosidase = α-glucosidase (Saccharomyces cerevisiae, UniProt P53341); assay: α-Glucosidase assay; assay type: biochemical; settings: for α-glucosidase inhibition, inhibition (%) at 0.5 mM / IC50: mean ± SEM, triplicate; for IC50: read-out: α-glucosidase inhibition, IC50
# Chain of α-glucosidase (P53341 whole entry): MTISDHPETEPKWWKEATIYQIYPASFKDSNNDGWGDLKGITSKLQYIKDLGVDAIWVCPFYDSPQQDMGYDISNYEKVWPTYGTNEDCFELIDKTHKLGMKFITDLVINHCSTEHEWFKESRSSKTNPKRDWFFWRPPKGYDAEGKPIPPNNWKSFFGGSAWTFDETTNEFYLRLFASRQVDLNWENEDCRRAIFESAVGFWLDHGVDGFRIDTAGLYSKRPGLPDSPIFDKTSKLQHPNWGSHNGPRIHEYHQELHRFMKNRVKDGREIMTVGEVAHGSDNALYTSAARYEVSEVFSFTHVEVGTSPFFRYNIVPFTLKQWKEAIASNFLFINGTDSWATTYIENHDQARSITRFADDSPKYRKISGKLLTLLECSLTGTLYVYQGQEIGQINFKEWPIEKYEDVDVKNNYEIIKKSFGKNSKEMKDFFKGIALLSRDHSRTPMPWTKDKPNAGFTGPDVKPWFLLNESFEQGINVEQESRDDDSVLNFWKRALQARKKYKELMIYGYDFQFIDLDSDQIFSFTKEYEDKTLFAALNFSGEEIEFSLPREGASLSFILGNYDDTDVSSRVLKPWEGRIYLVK
# BChE = BChE (Homo sapiens, UniProt P06276); settings: mean ± SEM, triplicate; for IC50: read-out: BChE inhibition, IC50
# Chain of BChE (P06276 29-602, species assumed): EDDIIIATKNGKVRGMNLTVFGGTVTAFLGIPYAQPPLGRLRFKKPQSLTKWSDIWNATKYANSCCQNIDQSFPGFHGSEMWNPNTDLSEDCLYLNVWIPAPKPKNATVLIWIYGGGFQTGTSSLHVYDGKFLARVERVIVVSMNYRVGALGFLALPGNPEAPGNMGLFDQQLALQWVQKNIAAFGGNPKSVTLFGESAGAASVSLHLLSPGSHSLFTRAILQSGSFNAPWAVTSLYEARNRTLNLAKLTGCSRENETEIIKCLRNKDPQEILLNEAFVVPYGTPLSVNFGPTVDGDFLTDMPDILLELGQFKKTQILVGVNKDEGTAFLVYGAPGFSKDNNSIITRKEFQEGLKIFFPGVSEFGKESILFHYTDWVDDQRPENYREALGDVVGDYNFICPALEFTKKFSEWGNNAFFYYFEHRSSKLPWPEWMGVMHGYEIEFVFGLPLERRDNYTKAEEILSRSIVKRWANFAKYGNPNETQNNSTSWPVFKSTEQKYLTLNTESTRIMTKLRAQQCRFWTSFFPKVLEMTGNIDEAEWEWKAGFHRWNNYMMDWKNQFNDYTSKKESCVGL
# LOX = biological target: T1, LOX (Glycine max, UniProt P08170); assay: Lipoxygenase assay; assay type: biochemical; settings: mean ± SEM, triplicate; for IC50: read-out: LOX inhibition, IC50
# T1 sequence (P08170 1-839): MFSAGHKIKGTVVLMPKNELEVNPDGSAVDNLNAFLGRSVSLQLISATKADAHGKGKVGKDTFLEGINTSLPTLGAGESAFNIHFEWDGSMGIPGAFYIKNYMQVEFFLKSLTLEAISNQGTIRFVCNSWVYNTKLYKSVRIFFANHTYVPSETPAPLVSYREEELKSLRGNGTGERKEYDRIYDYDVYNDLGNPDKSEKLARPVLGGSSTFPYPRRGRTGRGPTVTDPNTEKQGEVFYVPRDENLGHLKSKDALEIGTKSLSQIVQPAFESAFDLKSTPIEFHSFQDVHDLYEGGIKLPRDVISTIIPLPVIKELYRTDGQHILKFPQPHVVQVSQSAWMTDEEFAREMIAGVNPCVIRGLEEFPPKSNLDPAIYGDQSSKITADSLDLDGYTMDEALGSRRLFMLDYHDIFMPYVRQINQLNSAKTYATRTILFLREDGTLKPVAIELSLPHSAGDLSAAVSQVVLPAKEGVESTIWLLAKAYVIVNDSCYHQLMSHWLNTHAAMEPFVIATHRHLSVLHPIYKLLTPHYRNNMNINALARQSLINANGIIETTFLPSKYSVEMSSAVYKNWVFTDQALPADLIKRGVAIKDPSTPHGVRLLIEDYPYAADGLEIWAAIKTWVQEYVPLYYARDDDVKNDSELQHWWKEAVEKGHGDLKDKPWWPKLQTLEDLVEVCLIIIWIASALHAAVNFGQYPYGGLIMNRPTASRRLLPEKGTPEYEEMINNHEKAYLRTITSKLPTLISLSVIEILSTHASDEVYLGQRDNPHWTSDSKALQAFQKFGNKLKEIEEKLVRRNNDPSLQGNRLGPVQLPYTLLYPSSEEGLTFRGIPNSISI
# urease = urease (Canavalia ensiformis, UniProt P07374); settings: mean ± SEM, triplicate; for IC50: read-out: urease inhibition, IC50
# Chain of urease (P07374 whole entry, looked up): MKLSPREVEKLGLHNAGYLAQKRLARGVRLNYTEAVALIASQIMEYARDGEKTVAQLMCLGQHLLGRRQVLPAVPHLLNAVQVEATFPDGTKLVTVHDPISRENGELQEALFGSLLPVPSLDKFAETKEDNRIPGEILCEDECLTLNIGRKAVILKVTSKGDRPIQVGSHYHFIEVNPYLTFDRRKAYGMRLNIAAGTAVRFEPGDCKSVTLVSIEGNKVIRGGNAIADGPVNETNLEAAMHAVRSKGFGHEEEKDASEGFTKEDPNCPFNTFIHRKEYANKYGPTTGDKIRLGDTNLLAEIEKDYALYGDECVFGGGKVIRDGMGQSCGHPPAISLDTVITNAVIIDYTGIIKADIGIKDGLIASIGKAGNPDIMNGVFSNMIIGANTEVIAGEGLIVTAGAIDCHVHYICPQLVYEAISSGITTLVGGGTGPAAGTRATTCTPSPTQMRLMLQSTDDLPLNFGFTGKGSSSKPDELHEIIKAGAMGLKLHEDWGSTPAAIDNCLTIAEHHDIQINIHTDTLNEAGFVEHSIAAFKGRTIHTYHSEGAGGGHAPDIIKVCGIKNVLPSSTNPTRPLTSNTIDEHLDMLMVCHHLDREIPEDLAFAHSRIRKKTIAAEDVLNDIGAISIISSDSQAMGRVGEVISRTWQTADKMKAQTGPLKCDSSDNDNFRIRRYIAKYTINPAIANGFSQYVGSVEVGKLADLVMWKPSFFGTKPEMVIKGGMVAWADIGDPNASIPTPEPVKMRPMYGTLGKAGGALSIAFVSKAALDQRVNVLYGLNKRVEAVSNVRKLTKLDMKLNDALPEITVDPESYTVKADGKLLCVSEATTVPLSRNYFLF
# Chain of AChE (P22303 32-614): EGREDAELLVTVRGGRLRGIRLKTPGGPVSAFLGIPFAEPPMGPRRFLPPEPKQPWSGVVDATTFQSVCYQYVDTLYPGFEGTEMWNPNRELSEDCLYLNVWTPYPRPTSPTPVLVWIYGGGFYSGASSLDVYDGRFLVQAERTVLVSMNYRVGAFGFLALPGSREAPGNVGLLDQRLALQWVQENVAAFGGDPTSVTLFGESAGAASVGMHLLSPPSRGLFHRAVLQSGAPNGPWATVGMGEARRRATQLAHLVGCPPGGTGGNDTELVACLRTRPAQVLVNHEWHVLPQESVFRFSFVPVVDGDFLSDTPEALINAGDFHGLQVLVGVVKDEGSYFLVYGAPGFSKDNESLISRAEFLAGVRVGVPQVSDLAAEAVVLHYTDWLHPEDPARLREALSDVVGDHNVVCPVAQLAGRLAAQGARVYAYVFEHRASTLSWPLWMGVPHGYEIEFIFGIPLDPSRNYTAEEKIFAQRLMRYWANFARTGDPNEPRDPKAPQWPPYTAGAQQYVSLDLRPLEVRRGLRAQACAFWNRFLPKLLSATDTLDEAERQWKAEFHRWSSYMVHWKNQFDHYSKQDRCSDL
SMILES,"AChE inhibition, inhibition (%) at 0.5 mM (AChE) [%]",IC50 (AChE) [µM],"α-glucosidase inhibition, inhibition (%) at 0.5 mM (α-glucosidase) [%]",IC50 (α-glucosidase) [µM],"BChE inhibition, inhibition (%) at 0.5 mM (BChE) [%]","LOX inhibition, inhibition (%) at 0.25 mM (LOX) [%]","urease inhibition, inhibition (%) at 0.25 mM (urease) [%]",activity against AChE enzyme (in words) (AChE),IC50 (BChE) [µM],IC50 (urease) [µM],activity against α-glucosidase enzyme (in words) (α-glucosidase),IC50 (LOX) [µM]
"Cc1ccc(S(=O)(=O)N2CCC(c3nnc(SCC(=O)NC4CCCCC4)n3C)CC2)cc1 [Compound 12a, 1-(4-toluenesulfonyl)-4-[3-(N-cyclohexyl-2-ethanamoylthio)-4-methyl-4H-1,2,4-triazol-5-yl] piperidine]",52.37 ± 0.78,476.3 ± 0.57,87.25 ± 1.65,135 ± 1.39,21.93 ± 0.62,39.47 ± 0.82,25.34 ± 1.42,–,–,–,–,–
"Cc1ccc(S(=O)(=O)N2CCC(c3nnc(SCC(=O)Nc4ccccc4)n3C)CC2)cc1 [Compound 12b, 1-(4-toluenesulfonyl)-4-[3-(N-phenyl-2-ethanamoylthio)-4-methyl-4H-1,2,4-triazol-5-yl] piperidine]",89.15 ± 0.68,85.46 ± 0.45,76.23 ± 1.58,264.3 ± 1.24,63.42 ± 0.75,35.25 ± 0.42,31.23 ± 1.42,excellent activity,279.4 ± 0.59,–,–,–
"Cc1ccc(S(=O)(=O)N2CCC(c3nnc(SCC(=O)Nc4ccccc4C)n3C)CC2)cc1 [Compound 12c, 1-(4-toluenesulfonyl)-4-{3-[N-(2-methylphenyl)-2-ethanamoylthio]-4-methyl-4H-1,2,4-triazol-5-yl} piperidine]",82.36 ± 0.67,134.6 ± 0.53,72.45 ± 1.75,327.8 ± 1.57,37.83 ± 0.42,36.47 ± 0.76,75.45 ± 1.72,–,–,163.8 ± 1.45,–,–
"Cc1ccc(S(=O)(=O)N2CCC(c3nnc(SCC(=O)Nc4cccc(C)c4)n3C)CC2)cc1 [Compound 12d, 1-(4-Toluenesulfonyl)-4-{3-[N-(3-methylphenyl)-2-ethanamoylthio]-4-methyl-4H-1,2,4-triazol-5-yl}{Kumari, 2021 #63} piperidine]",98.78 ± 0.78,0.73 ± 0.54,91.52 ± 1.43,36.7 ± 1.24,95.29 ± 0.74,68.34 ± 0.82,98.22 ± 1.65,excellent activity,–,19.4 ± 1.28,excellent activity,32.6 ± 0.42
"Cc1ccc(NC(=O)CSc2nnc(C3CCN(S(=O)(=O)c4ccc(C)cc4)CC3)n2C)cc1 [Compound 12e, 1-(4-toluenesulfonyl)-4-{3-[N-(4-methylphenyl)-2-ethanamoylthio]-4-methyl-4H-1,2,4-triazol-5-yl} piperidine]",87.43 ± 0.77,97.86 ± 0.65,72.75 ± 1.58,314.6 ± 1.24,96.47 ± 0.76,48.36 ± 0.43,39.26 ± 1.43,excellent activity,0.053,–,–,–
"CCc1ccccc1NC(=O)CSc1nnc(C2CCN(S(=O)(=O)c3ccc(C)cc3)CC2)n1C [Compound 12f, 1-(4-toluenesulfonyl)-4-{3-[N-(2-ethylphenyl)-2-ethanamoylthio]-4-methyl-4H-1,2,4-triazol-5-yl} piperidine]",39.62 ± 0.55,–,74.95 ± 1.74,275.8 ± 1.37,39.78 ± 0.57,62.38 ± 0.75,36.35 ± 1.78,–,–,–,–,96.32 ± 0.37
"COc1ccccc1NC(=O)CSc1nnc(C2CCN(S(=O)(=O)c3ccc(C)cc3)CC2)n1C [Compound 12g, 1-(4-toluenesulfonyl)-4-{3-[N-(2-methoxyphenyl)-2-ethanamoylthio]-4-methyl-4H-1,2,4-triazol-5-yl} piperidine]",79.24 ± 0.89,149.8 ± 0.67,71.45 ± 1.73,267.4 ± 1.52,24.72 ± 0.56,41.55 ± 0.51,42.87 ± 1.51,–,–,–,–,–
"CCOc1ccc(NC(=O)CSc2nnc(C3CCN(S(=O)(=O)c4ccc(C)cc4)CC3)n2C)cc1 [Compound 12h, 1-(4-toluenesulfonyl)-4-{3-[N-(4-ethoxyphenyl)-2-ethanamoylthio]-4-methyl-4H-1,2,4-triazol-5-yl} piperidine]",37.41 ± 0.62,–,73.12 ± 1.58,286.6 ± 1.25,16.51 ± 0.35,63.53 ± 0.52,42.63 ± 1.52,–,–,–,–,92.45 ± 0.26
"Cc1ccc(S(=O)(=O)N2CCC(c3nnc(SCC(=O)Nc4cccc(C)c4C)n3C)CC2)cc1 [Compound 12i, 1-(4-toluenesulfonyl)-4-{3-[N-(2,3-dimethylphenyl)-2-ethanamoylthio]-4-methyl-4H-1,2,4-triazol-5-yl} piperidine]",82.51 ± 0.85,117.4 ± 0.64,31.53 ± 1.37,–,36.47 ± 0.75,24.12 ± 0.59,75.82 ± 1.79,–,–,143 ± 1.52,–,–
"Cc1ccc(S(=O)(=O)N2CCC(c3nnc(SCC(=O)Nc4ccc(C)cc4C)n3C)CC2)cc1 [Compound 12j, 1-(4-toluenesulfonyl)-4-{3-[N-(2,4-dimethylphenyl)-2-ethanamoylthio]-4-methyl-4H-1,2,4-triazol-5-yl} piperidine]",88.36 ± 0.79,94.63 ± 0.57,72.25 ± 1.85,365.9 ± 1.42,37.62 ± 0.87,23.54 ± 0.85,73.52 ± 1.65,excellent activity,–,167.2 ± 1.34,–,–
"Cc1ccc(S(=O)(=O)N2CCC(c3nnc(SCC(=O)Nc4cc(C)ccc4C)n3C)CC2)cc1 [Compound 12k, 1-(4-toluenesulfonyl)-4-{3-[N-(2,5-dimethylphenyl)-2-ethanamoylthio]-4-methyl-4H-1,2,4-triazol-5-yl} piperidine]",65.27 ± 0.74,212.9 ± 0.59,71.16 ± 1.64,385.6 ± 1.32,49.23 ± 0.94,29.45 ± 0.72,76.15 ± 1.52,–,–,165.4 ± 1.27,–,–
